Measured values published in patent US9650379B2 (CHONG KUN DANG PHARMACEUTICAL CORP., priority 2013, dated 2017).

Tests used:
HDAC6 human recombinant = target: T1, HDAC6 human recombinant (Homo sapiens, UniProt Q9UBN7); test: Inhibition of HDAC6 activity (fluorimetric assay); assay type: biochemical; conditions: test concentrations 0.1, 1, 10, 100 and 1000 nM; 37° C., 60 minutes
T1 construct: purchased Calbiochem 382180
T1 sequence (Q9UBN7 1-1215): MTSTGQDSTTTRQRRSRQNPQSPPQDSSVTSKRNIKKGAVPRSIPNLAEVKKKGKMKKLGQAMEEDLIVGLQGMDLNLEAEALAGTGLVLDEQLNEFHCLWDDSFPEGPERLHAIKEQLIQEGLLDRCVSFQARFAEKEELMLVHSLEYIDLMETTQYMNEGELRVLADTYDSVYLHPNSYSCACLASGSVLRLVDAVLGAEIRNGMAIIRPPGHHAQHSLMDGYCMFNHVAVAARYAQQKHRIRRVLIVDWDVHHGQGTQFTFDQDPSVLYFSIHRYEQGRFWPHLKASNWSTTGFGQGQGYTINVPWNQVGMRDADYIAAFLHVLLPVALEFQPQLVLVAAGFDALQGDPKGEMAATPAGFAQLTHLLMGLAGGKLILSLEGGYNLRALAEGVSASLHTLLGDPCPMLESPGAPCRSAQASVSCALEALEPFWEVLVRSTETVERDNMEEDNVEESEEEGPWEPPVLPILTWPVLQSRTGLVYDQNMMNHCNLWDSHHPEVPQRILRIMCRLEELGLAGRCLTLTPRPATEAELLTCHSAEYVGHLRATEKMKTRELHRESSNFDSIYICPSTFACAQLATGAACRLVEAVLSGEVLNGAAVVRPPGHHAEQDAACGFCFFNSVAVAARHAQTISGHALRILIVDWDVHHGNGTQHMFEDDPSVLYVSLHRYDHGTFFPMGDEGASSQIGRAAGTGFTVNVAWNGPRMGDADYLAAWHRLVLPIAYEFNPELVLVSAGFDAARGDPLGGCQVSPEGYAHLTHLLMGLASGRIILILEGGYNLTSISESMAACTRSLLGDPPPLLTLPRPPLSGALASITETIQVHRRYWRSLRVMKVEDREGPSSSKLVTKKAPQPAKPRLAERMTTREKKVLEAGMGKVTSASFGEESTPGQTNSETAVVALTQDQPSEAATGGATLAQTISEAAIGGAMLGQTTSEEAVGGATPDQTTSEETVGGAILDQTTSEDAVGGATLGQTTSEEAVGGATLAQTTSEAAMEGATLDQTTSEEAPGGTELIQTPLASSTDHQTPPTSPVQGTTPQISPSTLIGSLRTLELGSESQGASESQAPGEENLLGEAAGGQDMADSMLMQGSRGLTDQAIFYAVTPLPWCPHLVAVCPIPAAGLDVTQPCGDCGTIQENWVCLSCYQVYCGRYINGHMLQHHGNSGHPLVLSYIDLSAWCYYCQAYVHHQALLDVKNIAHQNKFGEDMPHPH
Procedure, shortened: (§1)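 HDAC1 tested with the kit assay mixture at 100, 1000 and 10000 nM compound; recombinant human HDAC6 at 0.1, 1, 10, 100 and 1000 nM. Reaction ran 60 min at 37° C, then developer was added for 30 min at 37° C and fluorescence quantified.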

[1] = test system: tubulin acetylation (HDAC6) in RPMI8226 cells; test: Western blot analysis of tubulin acetylation in cells; assay type: cell-based; conditions: 24 hours, Western blot (FIG. 1)
Protocol: Specifically, RPMI8226 cells were seeded into a six-well plate at a density of 1.0×10^6 cells/well, and then treated with varying concentrations of each of compounds 636 and 642. After 24 hours, protein was extracted from the cells using RIPA buffer and quantified by the Bradford method. 25 μg of the protein was dissolved to sample buffer and electrophoresed on 4-12% gradient gel, and the gel was transferred to a nitrocellulose membrane for 50 minutes. The membrane was blocked in 5% skim milk solution for 1 hour. Anti-acetyl H3 antibody (1:2,000), anti-acetyl H4 antibody (1:5,000), anti-acetyl tubulin antibody (1:5,000) and anti-β-actin antibody (1:10,000) were added to 5% skim milk, and the membrane was immersed in the skim milk and allowed to react at 4° C. for 16 hours, after which it was washed three times with 1×TBS-T for 10 minutes each washing. IgG-HRP antibody (1:5,000) was added to 5% skim milk, and the membrane was immersed in the skim milk and allowed to react at room temperature for 40 minutes, after which it was washed three times with 1×TBS-T for 10 minutes each washing. Detection was performed by LAS 3000 using ECL solution.

HDAC1 = target: T2, HDAC1 (Homo sapiens, UniProt Q13547); test: Inhibition of HDAC1 activity (HDAC1 fluorimetric drug discovery assay kit); assay type: biochemical; conditions: test concentrations 100, 1000 and 10000 nM; 37° C., 60 minutes
T2 construct: purchased Enzolifesciences BML-AK511
T2 sequence (Q13547 whole entry): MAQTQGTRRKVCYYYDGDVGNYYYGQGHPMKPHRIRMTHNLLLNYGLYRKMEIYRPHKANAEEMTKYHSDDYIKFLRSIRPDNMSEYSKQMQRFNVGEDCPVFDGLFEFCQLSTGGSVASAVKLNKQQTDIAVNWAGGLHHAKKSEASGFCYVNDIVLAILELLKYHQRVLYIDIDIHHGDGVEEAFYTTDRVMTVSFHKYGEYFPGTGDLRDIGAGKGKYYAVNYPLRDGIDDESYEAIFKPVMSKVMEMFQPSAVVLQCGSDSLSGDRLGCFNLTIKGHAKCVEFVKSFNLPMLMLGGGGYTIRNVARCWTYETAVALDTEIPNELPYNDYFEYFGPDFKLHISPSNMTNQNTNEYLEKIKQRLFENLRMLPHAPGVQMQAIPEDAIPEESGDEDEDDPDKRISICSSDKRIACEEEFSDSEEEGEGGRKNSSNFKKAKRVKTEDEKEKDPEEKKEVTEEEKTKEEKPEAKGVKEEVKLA
Procedure, shortened: as §1

[2] = test system: CTLA4 expression in iTreg (CD4+CD25+Foxp3+) cells; test: CTLA4 assay in induced regulatory T cells; assay type: cell-based, C57BL/6 mouse; conditions: 6 days incubation
Text: In order to evaluate the effect of the compounds of the present invention on the expression of CTLA4, FOXP3+ induced regulatory T cells were induced from effector T cells (CD4+CD25−) isolated from the spleen of C57BL/6 mouse. Specifically, 6-week-old C57BL/6 mouse were purchased, and spleens were isolated therefrom, and separated into single cells by treatment with collagenase D. Effector T cells (CD4+CD25−, Teff) were separated from the mouse spleen cells using a CD4+CD25 regulatory T cell isolation kit (Miltenyi Biotec). Teff were plated on a 48-well plate at a density of 5×10^5 cells/well, and activated by adding a […] mAb-conjugated magnetic bead (T cell Activation/Expansion kit, Miltenyi Biotec) thereto. The activated cells were treated with TGF-β2 and each compound, and after 6 days, the cells were subjected to cell surface staining with CD4-PECy7 and CD25-APC (eBioscience) and to intracellular staining with FOXP3-Alexafluor488 and CTLA4-PE (eBioscience). Then, a change in the expression of CTLA4 in the induced regulatory T cells (iTreg) was analyzed by FACS Canto II (BD bioscience).

[3] = test system: proliferation of effector T cells (Teff) co-cultured with Treg; test: Regulatory T cell suppression function, Treg/Teff co-culture; assay type: cell-based, C57BL/6 mouse; conditions: Teff:Treg 2:1 co-culture, 3 days; vehicle group 27% suppression
Protocol: The effect of compound 636 on the proliferation of effector T cells in the co-culture condition of the regulatory T cells (Treg) and effector T cells (Teff) isolated from the spleen of C57BL/6 mouse was evaluated.
Specifically, 6-week-old C57BL/6 mouse were purchased, and spleens were isolated therefrom, and separated into single cells by treatment with collagenase D. Teff (CD4^+CD25^−) and Treg (CD4^+CD25^high) were isolated from the mouse spleen cells using a CD4^+CD25^high regulatory T cell isolation kit (Miltenyi Biotec). The Teff were stained with 5 μM Cell Proliferation Dye eFluor® 670 (eBioscience) at 37° C. under a light-shielded condition for 10 minutes, and incubated in cold complete media on ice for 5 minutes to stop the staining reaction, and then washed three times with complete media. The eFluor-stained effector T cells and the Treg were co-cultured on a U-bottom plate at a ratio of 2:1, and activated by adding a CD3εCD28 mAb-conjugated magnetic bead (T cell Activation/Expansion kit, Miltenyi Biotec) thereto. The activated cells were treated with compound 636, and after 3 days, the proliferation of the Teff was evaluated by analyzing the dilution pattern of eFluor® 670 with FACS Canto II (BD bioscience).

effector T cells (Teff) = test: Viability (death) of Teff cells; assay type: cell-based, C57BL/6 mouse; conditions: treated for 24 hours

| IC50 (HDAC6 human recombinant) [nM] | IC50 (HDAC1) [nM] | SMILES | compound concentration at which tubulin acetylation (HDAC6) appeared [1] | increase of the expression of CTLA4 in the iTreg cells ([2]; concentration not stated separately) [times] | suppression ratio of Teff relative to the vehicle group [3] [times] | increase of the expression of CTLA4 in the iTreg (CD4+CD25+Foxp3+) population ([2]; concentrations of 100 and 500 nM) | viability of the Teff versus non-drug-treated group (effector T cells (Teff)) |
| --- | --- | --- | --- | --- | --- | --- | --- |
| 9 | 4310 | CC(C)(F)CN1CCN(c2ccnc3c2ccn3Cc2ccc(C(=O)NO)cc2)CC1 [Compound 642, 4-((4-(4-(2-fluoro-2-methylpropyl)piperazin-1-yl)-1H-pyrrolo[2,3-b]pyridin-1-yl)methyl)-N-hydroxybenzamide] | about 300 nM | ≥ 2 | – | – | – |
| 8 | 930 | CC(C)(F)CN1CCC(c2ccnc3c2ccn3Cc2ccc(C(=O)NO)cc2)CC1 [Compound 636, 4-((4-(1-(2-fluoro-2-methylpropyl)piperidin-4-yl)-1H-pyrrolo[2,3-b]pyridin-1-yl)methyl)-N-hydroxybenzamide] | about 300 nM | – | 2 | 1.5-2 times | did not differ |
| 12 | 1630 | C[C@@H]1CN(c2cnc3c(ccn3Cc3ccc(C(=O)NO)cc3)c2)C[C@H](C)N1CC(C)(C)F [Compound 866, 4-((5-((3S,5R)-4-(2-fluoro-2-methylpropyl)-3,5-dimethylpiperazin-1-yl)-1H-pyrrolo[2,3-b]pyridin-1-yl)methyl)-N-hydroxybenzamide] | – | – | – | – | – |
| 5 | 2310 | O=C(NO)c1ccc(Cn2ccc3cc(-c4ccc(O)cc4)cnc32)cc1 [Compound 691, N-hydroxy-4-((5-(4-hydroxyphenyl)-1H-pyrrolo[2,3-b]pyridin-1-yl)methyl)benzamide] | – | – | – | – | – |
